Source: US8288390B2, “Benzofuran derivatives” (Takeda Pharmaceutical Company Limited, priority 2009, dated 2012)

How the values were obtained:
[1] = system: rat mixed glial culture; experiment: Activity of promoting neuronal neogenesis in rat mixed glial culture; assay type: cell-based; details: Rattus norvegicus, 72 h, compound 1 μM + rhIGF-1 100 ng/ml, 3 days culture; absorbance at 450 nm (class III beta-tubulin antibody); control rhIGF-1 only = 100%; read-out: Increase Ratio of the Absorbance (% control)
Experimental: From a three-day old SD rat, hippocampus and cerebral cortex were removed. By using a kit of dispersion liquid for neuronal cells (MB-X9901, manufactured by SUMITOMO BAKELITE CO., LTD.), cell suspension was prepared and then seeded on a 96-well plate coated with collagen Type I (4860-010, manufactured by Asahi Techno Glass Co., Ltd.) to 10^5 cells/well. Under the condition of 37° C. and 5% CO2, the cells were cultured for four days in a growth medium (D-MEM/F12 with 10% FBS, comprising PS).
After culturing, the medium was exchanged with a medium for differentiation (D-MEM/F12, comprising PS), added with rhIGF-1 (R&D Systems, 291-G1-250, final concentration of 100 ng/ml) and the compound to 1 μM, followed by further culture for three days. Cultured cells were fixed with 4% paraformaldehyde-PBS (manufactured by MUTO PURE CHEMICALS CO., LTD.) and subjected to membrane penetration using 0.1% Triton X-100 PBS, followed by blocking with Block Ace solution (UK-B80, manufactured by Dainippon Sumitomo Pharma Co., Ltd.). As a primary antibody, Anti-neuron-specific class III beta-tubulin antibody (R&D Systems, MAB1195, clone Tuj-1) was used after 1000× dilution. As a secondary antibody, Anti-Mouse Ig, HRP-Linked F (ab′) 2 Fragment Sheep (Amersham Biosciences, NA9310) was used after 10000× dilution. For washing process, the plate washer (BIO-TEK INSTRUMENTS ELX405) was used. For a chromogenic reaction, the reaction was carried out for 10 minutes using TMB Microwell Peroxidase Substrate System (Kirkegaard & Perry Laboratories, 50-76-00), followed by terminating the reaction according to the addition of 1M phosphoric acid. By using the plate reader (Labsystems Multiskan BICHROMATIC), absorbance at 450 nm was measured.
The absorbance for the case in which no compound is added (i.e., control, rhIGF-1 only) was 100%, and the increase ratio of the absorbance for the compound addition (i.e., compound+rhIGF-1) compared to the control was obtained as % control. Activity of the each compound for promoting neuronal differentiation that is measured according to the above method is summarized in Table 9 and Table 10.

[2] = system: Akt protein; experiment: Activity of inhibiting Akt protein degradation in rat mixed glial culture; assay type: cell-based; details: compound 1 μM + rhIGF-1 100 ng/ml, 10 minutes at 37° C.; Akt calibrated with ERK; no addition = 100%, rhIGF-1 only = 0%
Experimental: The mixed glial cells used in the Test example 1 were seeded on a 6-well plate coated with collagen Type I (manufactured by Asahi Techno Glass Co., Ltd.) to 4×10^6 cells/well. Under the condition of 37° C. and 5% CO2, the cells were cultured for four days in a growth medium (D-MEM/F12 with 10% FBS, comprising PS). After that, the medium was exchanged with a serum-free medium (D-MEM/F12, comprising PS) and the cells were subjected to starvation for 4 hours under the condition of 37° C. and 5% CO2.
Next, rhIGF-1 (R&D Systems, 291-G1-250, final concentration 100 ng/ml) and the compound were added to obtain 1 μM and reacted in a water bath incubator at 37° C. for 10 minutes. Culture supernatant was aspirated off, 150 μL of RIPA (50 mM Tris-HCl pH7.5, 5 mM EDTA, 100 mM NaCl, 30 mM NaF, 5 mM sodium diphosphate, 137 mg/l pepstatin A, 2.5 KIU/l aprotinin, 1% NP-40, 6 mM sodium deoxycholate, 1 μM microcystinLR, 1 μM Z-Leu-Leu-Nva-H(aldehyde), 48 μM leupeptin, 96 μM 4-(2-aminoethyl)benzenesulfonyl fluoride-HCl, 1 mM sodium orthovanadate) was added thereto, and the reaction was terminated. After the termination of the reaction, the cell lysate was recovered by using a cell scraper on ice. Finally, the cell lysate was centrifuged for 30 minutes at 15000 rpm and the supernatant was taken as a cell extract.
Proteins were recovered from the cell extract by using trichloroacetic acid, and quantified according to Lowry method. Standard curve was established with bovine serum albumin. Based on the measured values, each cell extract was diluted with RIPA to prepare it in constant concentration (10 μg/lane). SDS-PAGE was carried out under reducing condition using 10% acrylamide (45 mA, 1.5 hours). After transferring to a PVDF membrane (0.13 A, 1 hour), reaction with an antibody was carried out. As a primary antibody, Akt (Cell Signaling, 9272) and ERK (Santa Cruz, sc-94) were used with the dilution ratio of 1000. As a secondary antibody, HRP-labeled anti-rabbit antibody (NA9340V, manufactured by Amersham) was used with the dilution ratio of 12500. Then, using ImmunoStar reagent (291-55203, manufactured by Wako Pure Chemical Industries, Ltd.), X-ray film detection was carried out. Quantification of the results was carried out by using GS-800 Calibrated Densitometer (manufactured by BioRad), and then the band strength was converted into the numerals by multiplying the absorbance originating from bands of Akt and ERK-1&2 by the area. Akt was calibrated with ERK to give the numeral values.
Inhibitory activity on Akt degradation was expressed as inhibition ratio. Specifically, the case in which neither the compound nor rhIGF-1 was added (no addition) is 100% and the case in which only rhIGF-1 was added is 0%, and then with the value measured from compound+rhIGF-1, the inhibition ratio was obtained. Inhibition ratio(%)=[(compound+rhIGF-1)−(rhIGF-1)]÷[(no addition)−(rhIGF-1)]×100

[3] = system: Tg2576 transgenic mice; experiment: Amelioration of cognitive function in novel object recognition test; assay type: in vivo, mouse; details: female Tg2576 mice, 10 mg/kg/day orally once a day for 3 weeks; retention 24 hours after training; recovery ratio vs vehicle Tg2576 and wild type
Experimental: Female Tg2576 transgenic mice and wild-type littermates were used at 8-9 months old. All animals were housed in room maintained at 24±1° C. with a 12-h light/dark cycle. Lights on 7:00 a.m. Food chows (Oriental Yeast Co. Tokyo, Japan) and tap water were provided ad libitum.
The compounds (10 mg/kg/day) or vehicle (0.5% methylcellulose, Wako Pure Chemical Industries Limited, Osaka, Japan) was orally administered to the mice once a day for 3 weeks. After the gavages, the novel object recognition test was performed. The test procedure consisted of three sessions: habituation, training, and retention. In the training and retention sessions, observer was not informed of the group name or animal number (blind method). 4-5 mice were habituated to the box (30×30×30 high cm), with 30 minutes of exploration in the absence of objects (habituation session). During the training session, two objects were placed in the back corner of the box. A mouse was then placed at another corner of the box and the total time spent exploring the two objects was recorded for 5 minutes. During the retention session, animals were placed back into the same box 24 hours after the training session, in which one of the familiar objects used during training was replaced with a novel object. The animals were then allowed to explore freely for 5 minutes and the time spent exploring each object was recorded. Throughout the experiments, the objects were used in a counterbalanced manner in terms of an environmental effect, their physical complexity and emotional neutrality. A preference index (PI), a ratio of the amount of time spent exploring the novel object over the total time spent exploring both objects, was used to measure cognitive function. Furthermore, recovery ratio was calculated by following formula; [Recovery ratio]=[[PI of Tg2576 mice treated by each compound]−[PI of Tg2576 mice treated by vehicle]]/[[PI of wild type mice]−[PI of Tg2576 mice treated by vehicle]].×100(%)

melting point	SMILES	activity at 1 µM [1]	Inhibition of Akt degradation (%) [2]	Preference index (% recovery) [3]
–	COc1ccc(N2CCN(c3c(C)c4c(c(OC)c3C)OC(C)(C)C4)CC2)cc1 [Example 47, 1-(4-Methoxyphenyl)-4-(7-methoxy-2,2,4,6-tetramethyl-2,3-dihydro-1-benzofuran-5-yl)piperazine]	> 500%	55.2%	82.2 % recovery
192 to 193 °C	Cc1c(C)c(N2CCN(c3ccnc(Cl)n3)CC2)c(C)c2c1OC(C)(C)C2 [Example 82, 2-Chloro-4-[4-(2,2,4,6,7-pentamethyl-2,3-dihydro-1-benzofuran-5-yl)piperazin-1-yl]pyrimidine]	–	–	–
–	COc1ccc(N2CCN(c3c(C)c(C)c4c(c3C)C[C@H](C)O4)CC2)cc1 [Example 22, 1-(4-Methoxyphenyl)-4-[(2S)-2,4,6,7-tetramethyl-2,3-dihydro-1-benzofuran-5-yl]piperazine]	389%	73.9%	76.9 % recovery
–	COc1ccc(N2CCN(c3c(C)c(C)c4c(c3C)CC(C)(C)O4)CC2)cc1 [Example 17, 1-(4-Methoxyphenyl)-4-(2,2,4,6,7-pentamethyl-2,3-dihydro-1-benzofuran-5-yl)piperazine]	216%	73.3%	70.9 % recovery
